One series has as its system B16 melanoma cells. The series can be described thus: In vivo tumor growth suppression, B16 efficacy model. Also on record: species or system mouse. The note with it: C57BL/6 mice, IP daily for 12 days; test compound 5 mg/kg and 10 mg/kg, melphalan 2.5 mg/kg.
For series [1], the system named is LLCPK cells conditionally expressing hLAT1.
The subject of series [2] is human bone marrow cells (erythroid and myeloid progenitors). As to the kind of experiment: In vitro bone marrow toxicity, colony forming cell assays. Particulars: 14 days in culture, methylcellulose media.
For a further series, the target named is T1, hLAT2 (Homo sapiens, UniProt Q9UHI5).
T1 construct: expressed in transfected cells; host or cells: KB or LLCPK cells, tetracycline/doxycycline-inducible
T1 sequence (Q9UHI5 1-535): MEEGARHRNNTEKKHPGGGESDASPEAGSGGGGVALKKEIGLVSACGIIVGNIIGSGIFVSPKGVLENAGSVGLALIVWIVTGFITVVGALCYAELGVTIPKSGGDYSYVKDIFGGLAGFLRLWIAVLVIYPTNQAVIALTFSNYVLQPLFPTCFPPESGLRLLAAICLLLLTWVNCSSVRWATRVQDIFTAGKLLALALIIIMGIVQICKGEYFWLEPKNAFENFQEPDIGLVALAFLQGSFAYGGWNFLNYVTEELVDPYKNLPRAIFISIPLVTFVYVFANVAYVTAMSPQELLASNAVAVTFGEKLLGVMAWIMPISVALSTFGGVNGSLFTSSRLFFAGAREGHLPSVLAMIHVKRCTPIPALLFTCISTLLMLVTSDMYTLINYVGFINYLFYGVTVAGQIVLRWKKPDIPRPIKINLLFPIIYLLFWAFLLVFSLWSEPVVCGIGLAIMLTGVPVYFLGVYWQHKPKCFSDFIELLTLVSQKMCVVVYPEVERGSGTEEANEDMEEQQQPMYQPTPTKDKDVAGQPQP
T1 sequence (P08195 1-630 isoform P08195-1 partner): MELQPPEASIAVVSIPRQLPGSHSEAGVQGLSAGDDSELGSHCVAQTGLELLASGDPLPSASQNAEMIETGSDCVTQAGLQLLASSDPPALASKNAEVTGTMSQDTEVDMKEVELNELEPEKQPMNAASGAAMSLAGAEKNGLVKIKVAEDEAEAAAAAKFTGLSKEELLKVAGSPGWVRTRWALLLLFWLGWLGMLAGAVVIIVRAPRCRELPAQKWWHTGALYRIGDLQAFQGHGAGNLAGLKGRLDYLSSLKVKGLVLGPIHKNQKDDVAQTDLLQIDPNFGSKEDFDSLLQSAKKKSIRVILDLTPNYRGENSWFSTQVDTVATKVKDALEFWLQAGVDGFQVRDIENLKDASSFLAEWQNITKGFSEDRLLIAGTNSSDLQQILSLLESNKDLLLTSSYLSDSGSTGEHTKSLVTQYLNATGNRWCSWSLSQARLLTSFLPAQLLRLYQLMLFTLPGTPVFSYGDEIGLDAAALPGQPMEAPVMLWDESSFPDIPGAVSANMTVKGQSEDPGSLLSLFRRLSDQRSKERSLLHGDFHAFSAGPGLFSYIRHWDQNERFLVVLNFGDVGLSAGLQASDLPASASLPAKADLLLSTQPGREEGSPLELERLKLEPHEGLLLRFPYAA
As to the kind of experiment: LAT2 uptake inhibition assay, radiolabeled competition uptake with [3H]-leucine. It counts as cell-based.

For a further series, the system named is U251. The series can be described thus: cells. Particulars: Homo sapiens, U-251, read-out: IC50 (in vitro toxicity). In kind it is cell-based.
A further series relates to LN229. As to the kind of experiment: cells. It counts as cell-based. Particulars: Homo sapiens, LN-229, read-out: IC50 (in vitro toxicity).
The test system of the next series is 42MGBA. The series can be described thus: cells. It counts as cell-based. Particulars: read-out: IC50 (in vitro toxicity).
A further series relates to DBRTG. The series can be described thus: cells. It counts as cell-based. The note with it: read-out: IC50 (in vitro toxicity).
The next series concerns G55. The series can be described thus: cells. It counts as cell-based. Particulars: read-out: IC50 (in vitro toxicity).
Another series has as its system 794. The series can be described thus: cells. In kind it is cell-based. Particulars: read-out: IC50 (in vitro toxicity).
For a further series, the system named is D283. The series can be described thus: cells. In kind it is cell-based. Particulars: D283, read-out: IC50 (in vitro toxicity).
The next series relates to HCT116. As to the kind of experiment: In vitro cytotoxicity, HCT116. Particulars: Homo sapiens, HCT-116, read-out: IC50 (in vitro toxicity). In kind it is cell-based.
Another series concerns MCF7. As to the kind of experiment: In vitro cytotoxicity, MCF7. In kind it is cell-based. Particulars: Homo sapiens, MCF7, read-out: IC50 (in vitro toxicity).
The subject of series [3] is MDA-MB-231. As to the kind of experiment: cells. It counts as cell-based. The note with it: Homo sapiens, MDA-MB-231, read-out: IC50 (in vitro toxicity).
A further series deals with MV411. As to the kind of experiment: cells. Particulars: Homo sapiens, MV4-11, read-out: IC50 (in vitro toxicity). It counts as cell-based.
The next series has as its system Raji. The series can be described thus: cells. It counts as cell-based. The note with it: Homo sapiens, read-out: IC50 (in vitro toxicity).
Another series concerns PC3. As to the kind of experiment: cells. It counts as cell-based. Particulars: Homo sapiens, PC-3, read-out: IC50 (in vitro toxicity).
Another series deals with U251 MG. As to the kind of experiment: Orthotopic glioblastoma study (Example 84). In kind it is in vivo, mouse. The note with it: at a dose of 10 mg/kg, IV. On the procedure:
The efficacy of compounds provided by the present disclosure was evaluated using an orthotopic luciferase human glioblastoma model—U251 MG. Human glioblastoma cells were intracolonically injected (3×10^5 cells/3 μL) into athymic mice (female, 4-5 weeks-old, nu/un homozygous). Treatment began when the BLI reached a log-phase growth, at about 14 days after injection. Ten mice were assigned to each arm of the study. The mice were dosed with vehicle (IP, once weekly for 4 weeks), compound (5) (5 mg/kg, IV once weekly for 4 weeks), compound (5) (10 mg/kg, IV once weekly for 4 weeks), compound (40) (10 mg/kg, IV once weekly for 4 weeks), or compound (50) (20 mg/kg, IV single dose). The tumor volume was measured using bioluminescence imaging.

The target of a further series is T2, hLAT1 (Homo sapiens, UniProt Q01650).
T2 construct: expressed in transfected cells; host or cells: LLCPK cells, tetracycline/doxycycline-inducible, boosted with sodium butyrate
T2 sequence (Q01650 whole entry, one chain of several): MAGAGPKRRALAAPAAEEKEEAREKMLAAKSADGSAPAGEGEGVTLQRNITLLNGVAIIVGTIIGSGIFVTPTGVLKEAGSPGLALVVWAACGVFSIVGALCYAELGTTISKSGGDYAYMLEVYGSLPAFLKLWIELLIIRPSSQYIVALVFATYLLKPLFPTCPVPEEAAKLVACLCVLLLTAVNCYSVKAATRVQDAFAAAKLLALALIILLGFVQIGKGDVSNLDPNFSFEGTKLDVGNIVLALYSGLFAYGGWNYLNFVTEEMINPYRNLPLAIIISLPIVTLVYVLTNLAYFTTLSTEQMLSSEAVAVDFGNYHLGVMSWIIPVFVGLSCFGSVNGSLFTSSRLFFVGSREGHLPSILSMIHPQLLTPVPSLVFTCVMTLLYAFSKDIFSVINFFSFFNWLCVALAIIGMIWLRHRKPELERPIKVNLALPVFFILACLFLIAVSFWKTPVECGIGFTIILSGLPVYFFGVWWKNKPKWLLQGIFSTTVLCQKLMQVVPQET
As to the kind of experiment: LAT1 uptake inhibition assay, radiolabeled competition uptake with [3H]-Gabapentin. It counts as cell-based.

The next series has as its system KMS34. The series can be described thus: cells. It counts as cell-based. Particulars: KMS-34, read-out: IC50 (in vitro toxicity).
The next series deals with L363. As to the kind of experiment: cells. In kind it is cell-based. Particulars: Homo sapiens, L-363, read-out: IC50 (in vitro toxicity).
A further series deals with AMO1. The series can be described thus: cells. The note with it: Homo sapiens, AMO1, read-out: IC50 (in vitro toxicity). It counts as cell-based.
The next series concerns U266. As to the kind of experiment: cells. In kind it is cell-based. The note with it: Homo sapiens, U-266, read-out: IC50 (in vitro toxicity).
The next series relates to MM1.S. The series can be described thus: cells. In kind it is cell-based. The note with it: Homo sapiens, read-out: IC50 (in vitro toxicity).
The subject of the next series is HS27A. As to the kind of experiment: cells. Particulars: HS-27A, read-out: IC50 (in vitro toxicity). It counts as cell-based.
Another series concerns RPMI8266. The series can be described thus: cells. In kind it is cell-based. The note with it: RPMI8266, read-out: IC50 (in vitro toxicity).
For the next series, the system named is KMS11. The series can be described thus: cells. In kind it is cell-based. Particulars: Homo sapiens, KMS-11, read-out: IC50 (in vitro toxicity).
The subject of the next series is HS5. The series can be described thus: cells. In kind it is cell-based. The note with it: HS5, read-out: IC50 (in vitro toxicity).
Series [4] has as its system MDA-MB-231. The series can be described thus: Triple negative breast cancer study, IV dosing. The note with it: IV once a week for 8 weeks. It counts as in vivo, mouse. How it is done:
The efficacy of compounds provided by the present disclosure was evaluated on a triple negative breast cancer xenograft model—MDA-MB-231. Human triple negative breast cancer cells were implanted into the flank of nude mice and the study was initiated after the volume of the tumors was 150 mm^3. The animals were IV dosed once a week for 8 weeks with either vehicle or 5 mg/kg of compound (5), or 20 mg/kg compound (7). The tumor volume, body weight, white blood cell count, and granulocyte count were determined during the study and 12 days after the final dose was administered.

The subject of series [5] is LLCPK cells conditionally expressing hLAT1. The series can be described thus: cells. The note with it: 0.5 h, read-out: LC50, concentration of test compound at which the percent surviving cells was 50%.
Series [6] deals with Human prostate cancer PC3 cells. Particulars: mouse, in vivo.

Take `N[C@@H](Cc1ccc(N(CCCl)CCCl)cc1)C(=O)O` [melphalan, reference compound]: in the series with B16 melanoma cells, the “Tumor Growth (% Control), 5 days post-dosing” value is 56 % Control and the “Tumor Growth (% Control), End of dosing” value is listed as 33 % Control. For the same compound, in [1], the “percent surviving cells in cells expressing LAT1 versus cells not expressing LAT1 (in words)” value is “about the same”. Moreover, the “toxicity to bone marrow progenitor cells (BFU-E, CFU-GM, Total CFC)” value in [2] is given as “more toxic to bone marrow progenitor cells than compound (5)”.
One may read the IC50 as the point on the concentration scale where inhibition reaches its midpoint. Take `Cc1ccc(N(CCCl)CCCl)c(C[C@H](N)CC(=O)O)c1` [Compound 50, (3S)-3-amino-4-[2-[bis(2-chloroethyl)amino]-5-methyl-phenyl]butanoic acid]: the half-inhibitory concentration (IC50) at hLAT2, in the series with U251, with LN229, in the series with 42MGBA, in the series with DBRTG and in the series on G55 was less than 100 µM each time. For the same compound, the IC50 in the series with 794, in the series with D283, in the series with HCT116, in the series on MCF7, in the series with MDA-MB-231 [3] and in the series on MV411 was less than 100 µM in each case. Moreover, the IC50 in the series on Raji and in the series with PC3 was less than 100 µM in each case. In addition, the “glioblastoma tumor growth (bioluminescence imaging)” value with U251 MG is “suppressed glioblastoma tumor growth”.
As for `COc1ccc(N(CCCl)CCCl)cc1C[C@H](N)CC(=O)O` [Compound 7, (3S)-3-Amino-4-[5-[bis(2-chloroethyl)amino]-2-methoxy-phenyl]butanoic Acid], the IC50 at hLAT1, at hLAT2, with U251, in the series on LN229, with 42MGBA and with DBRTG was less than 100 µM each time. Moreover, the concentration for half-maximal inhibition (IC50) in the series on G55, with 794, in the series on D283, in the series on MDA-MB-231 [3], in the series on MV411 and in the series on Raji was less than 100 µM throughout. Besides, the half-maximal inhibitory concentration (IC50) in the series on PC3 was less than 100 µM; in the series with KMS34, greater than 100 µM; in the series on L363, greater than 100 µM; in the series with AMO1, greater than 100 µM; with U266, less than 100 µM; in the series with MM1.S, less than 100 µM. Further, the half-maximal inhibitory concentration (IC50) in the series on HS27A, with RPMI8266, in the series on KMS11 and in the series on HS5 was greater than 100 µM throughout. The body weight entry (in the series with MDA-MB-231 [4]; in series [6]) was “maintained weight” throughout. Besides, the myelosuppression result (in the series on MDA-MB-231 [4]; in series [6]) was “not dectected” throughout. The tumor growth suppression entry in the series with MDA-MB-231 [4] (nude mice, 5 mg/kg compound (5), 20 mg/kg compound (7)) was “dose-dependent tumor growth suppression”; in [6], “dose-dependent tumor growth suppression”. Further, in series [5], the CC50 was less than 1 µM.
Regarding `COc1ccc(N(CCCl)CCCl)c(C[C@H](N)CC(=O)O)c1` [Compound 51, (3S)-3-amino-4-[2-[bis(2-chloroethyl)amino]-5-methoxy-phenyl]butanoic acid], the half-inhibitory concentration (IC50) at hLAT2, in the series on U251, with LN229, in the series with 42MGBA, in the series on DBRTG and in the series with G55 was less than 100 µM throughout. Besides, the IC50 with 794, in the series with D283, in the series with HCT116, in the series with MCF7, in the series with MDA-MB-231 [3] and with MV411 was less than 100 µM each time. Further, the IC50 in the series with Raji was less than 100 µM; in the series with PC3 it was less than 100 µM; in the series with KMS34, less than 100 µM; in the series on L363, less than 100 µM; in the series on AMO1 it was greater than 100 µM; with U266, less than 100 µM. The IC50 in the series with MM1.S was less than 100 µM; with HS27A it was greater than 100 µM; with RPMI8266 it was greater than 100 µM; in the series on KMS11 it was greater than 100 µM; with HS5, greater than 100 µM. For the same compound, in [5], the CC50 was less than 1 µM. In series [6], the body weight entry is “maintained weight”. The myelosuppression entry in [6] is “not dectected”. Further, the tumor growth suppression result in series [6] is on record as “dose-dependent tumor growth suppression”.

The values are drawn from patent US10017459B2, “β-substituted β-amino acids and analogs as chemotherapeutic agents and uses thereof” (Quadriga Biosciences, Inc., priority 2015, dated 2018).
